Data from patent US9303045B2, “5-HT3 receptor antagonists” (Takeda Pharmaceutical Company Limited, priority 2013, dated 2016).
Counter-ions that a name gives are not always drawn.

Each compound was assayed against 5HT3a receptor expressed in HEK-293T cells (Homo sapiens (Human), UniProt P46098) (assay: Inhibition of Ca flux activity of 5HT3 in vitro assay). Details: calcium flux, 5HT 216 nM, approximate values.
Format: cell-based
Protocol: Inhibition of Ca Flux Activity of 5HT3 In Vitro Assay
The 5HT3 antagonist activity of the compounds of the invention was determined by measuring the ability of the compounds to inhibit the calcium flux activity of […] receptor expressed in HEK-293T cells. HEK-293T cells were transfected with the 5HT3a expression construct using Xtreme Gene 9 (Roche) in 150 mm tissue culture treated plates and incubated for 24 hours at 37° C. Cells were then split and plated at a density of 60K cells/well in poly-lysine coated, black 96-well plates with clear bottoms (BD BioSciences) and incubated overnight at 37° C. Growth media was removed and cells loaded with 200 uL calcium indicator dye in HBSS containing 20 mM HEPES (Calcium 5 Assay kit, Molecular Devices) and incubated at 37° C. for 1 hour. While cells were incubating, the 10× antagonist and agonist/antagonist addition plates were made. For 10× antagonist plate: half log serial dilutions (final concentrations range from 10^−7 through 10^−10 with the bottom well a negative, no ligand control) were made from test compounds in DMSO at a 1000× concentration and then diluted to 10× in HBSS/20 mM HEPES. For addition plate: 5HT was diluted to 100× in HBSS/20 mM HEPES (final concentration in the assay—216 nM) and 15 uL was added to each well of the addition plate, 15 uL of 10× compound was also added to the addition plate, and finally 120 uL of HBSS/20 mM HEPES (for a total of 150 uL). Cells were then removed from the incubator and equilibrated to room temperature for 10 minutes, then 22.5 uL of 10× test compounds were added in triplicate to the plates and incubated at room temperature for 10 minutes (Tropisetron was used as a positive control in every assay). Test plate and addition plate were loaded into the FlexStation III (Molecular Devices), and using the fluidics, 22.5 uL compound additions were made (at t=˜17 seconds), and fluorescence was measured for 90 seconds, reading every 2.2 seconds. Data sets were analyzed as max minus min using Software Max Pro (Molecular Devices). IC50 curves were generated using non-linear regression in GraphPad Prism.

Sequence of 5HT3a receptor expressed in HEK-293T cells (P46098 24-478): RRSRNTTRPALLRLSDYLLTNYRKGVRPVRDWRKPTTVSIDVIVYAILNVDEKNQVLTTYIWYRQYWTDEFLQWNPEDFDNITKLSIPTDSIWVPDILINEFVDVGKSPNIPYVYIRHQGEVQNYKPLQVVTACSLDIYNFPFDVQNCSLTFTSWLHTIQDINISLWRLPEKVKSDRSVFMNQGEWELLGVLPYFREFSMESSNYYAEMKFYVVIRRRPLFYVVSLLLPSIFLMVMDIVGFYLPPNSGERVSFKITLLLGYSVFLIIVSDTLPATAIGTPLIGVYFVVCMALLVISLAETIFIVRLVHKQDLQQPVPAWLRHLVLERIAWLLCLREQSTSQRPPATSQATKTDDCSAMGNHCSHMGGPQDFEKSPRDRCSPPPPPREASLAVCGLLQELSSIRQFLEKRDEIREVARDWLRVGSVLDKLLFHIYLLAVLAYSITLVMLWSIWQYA

Compound	IC50 [nM]
(1R,3R,5S)-8-methyl-8-azabicyclo[3.2.1]octan-3-yl 2-chloro-1-(methylsulfonyl)-1H-indole-3-carboxylate 2,2,2-trifluoroacetate [Example 6]	2.33
CN1C2CCC1CC(NC(=O)c1cn(CC(F)(F)F)c3ncccc13)C2 [Example 102, N-((1R,3R,5S)-8-methyl-8-azabicyclo[3.2.1]octan-3-yl)-1-(2,2,2-trifluoroethyl)-1H-pyrrolo[2,3-b]pyridine-3-carboxamide, 2,2,2-trifluoroacetate]	> 1000
CN1[C@@H]2COC[C@H]1C[C@@H](NC(=O)c1cn(-c3cnccn3)c3ccccc13)C2 [Example 129, N-((1R,5S,7S)-9-methyl-3-oxa-9-azabicyclo[3.3.1]nonan-7-yl)-1-(pyrazin-2-yl)-1H-indole-3-carboxamide, di-2,2,2-trifluoroacetate]	0.64
CN1[C@@H]2COC[C@H]1CC(NC(=O)c1cn(-c3ccnnc3)c3ccccc13)C2 (stereo partly drawn) [Example 190, N-((1R,5S,7S)-9-methyl-3-oxa-9-azabicyclo[3.3.1]nonan-7-yl)-1-(pyridazin-4-yl)-1H-indole-3-carboxamide]	0.75
CN1[C@@H]2COC[C@H]1CC(NC(=O)c1cn(CC(F)F)c3ccc(F)cc13)C2 (stereo partly drawn) [Example 63, 1-(2,2-difluoroethyl)-5-fluoro-N-((1R,5S,7S)-9-methyl-3-oxa-9-azabicyclo[3.3.1]nonan-7-yl)-1H-indole-3-carboxamide, 2,2,2-trifluoroacetate]	0.49
CN1C2CCC1CC(OC(=O)c1nn(CCF)c3ccccc13)C2 [Example 57, (1R,3R,5S)-8-methyl-8-azabicyclo[3.2.1]octan-3-yl 1-(2-fluoroethyl)-1H-indazole-3-carboxylate, 2,2,2-trifluoroacetate]	> 1000
CN1[C@@H]2COC[C@H]1C[C@@H](NC(=O)c1cn(-c3cncn3C)c3ccccc13)C2 [Example 154, 1-(1-methyl-1H-imidazol-5-yl)-N-((1R,5S,7s)-9-methyl-3-oxa-9-azabicyclo[3.3.1]nonan-7-yl)-1H-indole-3-carboxamide]	0.328
(1R,5S,7s)-9-methyl-3-oxa-9-azabicyclo[3.3.1]nonan-7-yl 1-(6-hydroxypyridazin-3-yl)-1H-indole-3-carboxylate, 2,2,2-trifluoroacetic acid salt [Example 32]	1.38
CN1C2COCC1CC(OC(=O)c1cn(CCF)c3ccc(C#N)cc13)C2 [Example 160, (1R,5S,7s)-9-methyl-3-oxa-9-azabicyclo[3.3.1]nonan-7-yl 5-cyano-1-(2-fluoroethyl)-1H-indole-3-carboxylate, 2,2,2-trifluoroacetic acid salt]	0.746
CN1[C@@H]2COC[C@H]1CC(OC(=O)c1cn(S(C)(=O)=O)c3ccccc13)C2 (stereo partly drawn) [Example 47, (1R,5S,7S)-9-methyl-3-oxa-9-azabicyclo[3.3.1]nonan-7-yl 1-(methylsulfonyl)-1H-indole-3-carboxylate, 2,2,2-trifluoroacetate]	0.33
O=C(O[C@H]1C[C@H]2COC[C@@H](C1)N2)c1cn(-c2cccnn2)c2ccccc12 [Example 136, (1R,5S,7s)-3-oxa-9-azabicyclo[3.3.1]nonan-7-yl 1-(pyridazin-3-yl)-1H-indole-3-carboxylate, 2,2,2-trifluoroacetic acid salt]	0.914
CN1[C@@H]2CC[C@H]1CC(NC(=O)c1cn(CC(F)F)c3ncccc13)C2 (stereo partly drawn) [Example 76, 1-(2,2-difluoroethyl)-N-((1R,3R,5S)-8-methyl-8-azabicyclo[3.2.1]octan-3-yl)-1H-pyrrolo[2,3-b]pyridine-3-carboxamide, 2,2,2-trifluoroacetate]	1.22
CN1[C@@H]2CCC[C@H]1CC(OC(=O)c1cn(CCF)c3ccccc13)C2 (stereo partly drawn) [Example 87, (1R,3R,5S)-9-methyl-9-azabicyclo[3.3.1]nonan-3-yl 1-(2-fluoroethyl)-1H-indole-3-carboxylate, 2,2,2-trifluoroacetate]	0.18
